# Source: patent US10150737B2, “Compounds for controlling arthropods” (priority 2013, dated 2018)
# Tests used:
# [1] = logP determination by HPLC on a reversed-phase column (C18); type: physicochemical; conditions: for logP^a): HPLC-MS method a); for log P: HPLC-MS
# Ctenocephalides felis [2] = assay: Ctenocephalides felis - in vitro contact tests with adult cat fleas; type: in vivo; conditions: application rate 5 μg/cm2 (=500 g/ha); after 48 h; fleas dead or moribund
# Experimental: For the coating of the test tubes, 9 mg of active ingredient are first dissolved in 1 ml of acetone p.a. and then diluted to the desired concentration with acetone p.a. 250 μl of the solution are distributed homogeneously on the inner walls and base of a 25 ml test tube by turning and rocking on an orbital shaker (rocking rotation at 30 rpm for 2 h). With 900 ppm active ingredient solution and internal surface area 44.7 cm^2, given homogeneous distribution, an area-based dose of 5 μg/cm^2 is achieved.
# After the solvent has evaporated off, the tubes are populated with 5-10 adult cat fleas (Ctenocephalides felis), sealed with a perforated plastic lid and incubated in a horizontal position at room temperature and ambient humidity. After 48 h, efficacy is determined. To this end, the test tubes are stood upright and the fleas are knocked to the base of the tube. Fleas which remain motionless at the base or move in an uncoordinated manner are considered to be dead or moribund.
# 100% efficacy means that all the fleas were dead or moribund. 0% efficacy means that no fleas were harmed.
# Boophilus microplus = Boophilus microplus - injection test; type: in vivo; conditions: application rate 20 μg/animal; injection into engorged adult female ticks; after 7 days
# How it was run: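 Five engorged adult female cattle ticks each received a 1 μl abdominal injection of compound solution in dimethyl sulphoxide. Fertile egg laying was assessed at 7 days, with doubtful eggs incubated about 42 days until hatch. 0% efficacy means all eggs fertile.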
# Ctenocephalides felis [3] = assay: Ctenocephalides felis - oral test; type: in vivo; conditions: application rate 100 ppm in citrated cattle blood; after 2 days
# How it was run: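 Roughly 20 unfed adult C. felis imbibe compound-dosed citrated cattle blood (DMSO formulation) across parafilm from a cylinder above their gauze chamber; percentage mortality recorded at day 2.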
# Myzus persicae = Myzus persicae - spray test; type: in vivo; conditions: Chinese cabbage leaf discs, after 6 days
# Experimental: Solvent: 78 parts by weight of acetone and 1.5 parts by weight of dimethylformamide
# Emulsifier: alkylaryl polyglycol ether
# To produce an appropriate active ingredient formulation, 1 part by weight of active ingredient is dissolved using the specified parts by weight of solvent and made up with water containing an emulsifier concentration of 1000 ppm until the desired concentration is attained. To produce further test concentrations, the preparation is diluted with emulsifier-containing water.
# Discs of Chinese cabbage leaves (Brassica pekinensis) infested by all stages of the green peach aphid (Myzus persicae) are sprayed with an active ingredient formulation of the desired concentration.
# After 6 days, efficacy in % is determined. 100% means that all the aphids have been killed; 0% means that none of the aphids have been killed.
# Phaedon cochleariae = Phaedon cochleariae - spray test; type: in vivo; conditions: larvae on Chinese cabbage leaf discs, after 7 days
# How it was run: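 Mortality of mustard beetle larvae was scored as % at day 7 on Brassica pekinensis leaf discs. Discs had been treated by spraying at the desired concentration, using an acetone/dimethylformamide solution diluted in water with 1000 ppm alkylaryl polyglycol ether, and dried before larvae were added.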
# Tetranychus urticae = Tetranychus urticae - spray test, OP-resistant; type: in vivo; conditions: bean leaf discs, after 6 days
# How it was run: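 Mortality (%) read on day 6 after spraying Phaseolus vulgaris leaf discs carrying all mite stages with formulations at the desired concentration. Formulation: active ingredient in acetone plus dimethylformamide, made up with emulsifier-containing water (1000 ppm alkylaryl polyglycol ether).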
# Musca domestica = Musca domestica test; type: in vivo; conditions: application rate 100 ppm; adult houseflies; after 2 days
# How it was run: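 Ten adult Musca domestica are exposed to a sugar-soaked sponge carrying the water-diluted DMSO formulation; kill in % is read 2 days later.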
# Lucilia cuprina = Lucilia cuprina test; type: in vivo; conditions: application rate 100 ppm; L1 larvae; after 2 days
# How it was run: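 Mortality (%) of first-instar blowfly larvae, about 20 per vessel, recorded 2 days after exposure to compound-treated minced horsemeat. Compound dissolved in dimethyl sulphoxide, then water-diluted to the desired concentration.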
# Spodoptera frugiperda = Spodoptera frugiperda - spray test; type: in vivo; conditions: caterpillars on maize leaf discs, after 7 days
# How it was run: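 Percent mortality of Spodoptera frugiperda caterpillars scored 7 days after placing them on dried maize leaf discs sprayed at the desired concentration. Spray formulation: compound dissolved in acetone/dimethylformamide, made up with water containing 1000 ppm emulsifier.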
# [4] = reversed-phase column (C18), Table I-T3
Structure (SMILES),logP^a) ([1]; reversed-phase column (C18)),"log P [1, 4]",efficacy (Ctenocephalides felis [2]) [%],efficacy (laying of fertile eggs) (Boophilus microplus) [%],efficacy (kill) (Ctenocephalides felis [3]) [%],efficacy (Myzus persicae; application rate 100 g/ha) [%],efficacy (Phaedon cochleariae; application rate 100 g/ha) [%],efficacy (Tetranychus urticae; application rate 100 g/ha) [%],efficacy (kill) (Musca domestica) [%],logP^a) [1],"logP^a) [1, 4]",efficacy (kill) (Lucilia cuprina) [%],efficacy (Phaedon cochleariae; application rate 500 g/ha) [%],efficacy (Spodoptera frugiperda; application rate 500 g/ha) [%],efficacy (Tetranychus urticae; application rate 500 g/ha) [%],efficacy (Spodoptera frugiperda; application rate 100 g/ha) [%],efficacy (Myzus persicae; application rate 500 g/ha) [%]
Cc1ncc(-c2cnn(-c3c(Cl)cc(C(F)(F)F)cc3Cl)c2)cc1C(=O)N(C)C1(C#N)CC1 [I-T3-132],2.9,2.9,100,100,100,90,100,100,–,–,–,–,–,–,–,–,–
Cc1ncc(-c2cnn(-c3c(Cl)cc(C(F)(F)F)cc3Cl)c2)cc1C(=O)NC1(C#N)CC1 [I-T3-129],2.6,2.6,100,100,100,100,100,100,80,–,–,–,–,–,–,–,–
CCc1cc(C(F)(C(F)(F)F)C(F)(F)F)cc(C)c1-n1cc(-c2cncc(C(=O)NC3CC3)c2)cn1 [I-T3-77],–,–,–,100,100,100,–,–,100,3.4,3.4,100,100,100,100,–,–
CCc1cc(C(F)(C(F)(F)F)C(F)(F)F)cc(C)c1-n1cc(-c2cncc(C(=O)NC3(C#N)CC3)c2)cn1 [I-T3-76],–,–,–,100,100,90,–,–,90,3.4,3.4,90,100,100,100,–,–
Cc1cc(C(F)(C(F)(F)F)C(F)(F)F)cc(C(F)(F)F)c1-n1cc(-c2ccc(Cl)c(C(=O)NC3CSC3)c2)cn1 [I-T3-85],–,–,100,100,100,90,100,100,100,4.7,4.7,100,–,–,–,100,–
Cc1cc(C(F)(C(F)(F)F)C(F)(F)F)cc(C)c1-n1cc(-c2cncc(C(=O)NC3CC3)c2)cn1 [I-T3-7],–,–,100,100,100,–,–,–,80,3.4,3.4,100,100,100,100,–,100
CCN(C(=O)c1cc(-c2cnn(-c3c(Cl)cc(C(F)(F)F)cc3Cl)c2)cnc1Cl)C1CC1 [I-T3-145],3.8,3.8,100,100,100,90,100,100,90,–,–,100,–,–,–,100,–
Cc1ncc(-c2cnn(-c3c(Cl)cc(C(F)(F)F)cc3Cl)c2)cc1C(=O)N(C)C1CC1 [I-T3-128],2.8,2.8,100,100,100,100,100,–,–,–,–,–,–,–,–,–,–
N#CC1(NC(=O)c2cc(-c3cnn(-c4c(Cl)cc(OC(F)(F)F)cc4Cl)c3)ccc2Cl)CC1 [I-T3-87],–,–,100,100,100,90,100,100,100,3.6,3.6,100,–,–,–,100,–
Cc1cc(C(F)(C(F)(F)F)C(F)(F)F)cc(C)c1-n1cc(-c2cccc(C(=O)NC3CC3)c2)cn1 [I-T3-29],–,–,100,100,100,–,–,–,100,3.3,3.3,100,100,100,100,–,90
Cc1ncc(-c2cnn(-c3c(Cl)cc(C(F)(F)F)cc3Cl)c2)cc1C(=O)NC1CC1 [I-T3-127],2.5,2.5,100,100,100,100,100,100,–,–,–,90,–,–,–,–,–
